According to PubChem BioAssay AID1918936 (Molecular Pharmacology Branch, DTP, NCI, 2023):

Test system: 349418-098-R-PDC complex spheroid viability
Test: Anticancer human tumor 349418-098-R-PDC patient-derived lung adenocarcinoma cell line growth inhibition
Details: for IC50: curve of first compound; for viability, T/C: stronger effect = lower value
How it was run: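 Multicellular complex spheroids of tumor cells with human endothelial cells (HUVEC) and mesenchymal stem cells; the LSD1 inhibitor iadademstat was combined with standard-of-care or investigational agents. Top concentration at or near clinical Cmax, half-log dilutions; final DMSO ≤0.25%.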

[1] = second compound 0.1 µM, first compound 0.000316 µM
[2] = second compound 0.1 µM, first compound 0.001 µM
[3] = second compound 0.1 µM, first compound 0.00316 µM
[4] = second compound 0.1 µM, first compound 0.01 µM
[5] = second compound 0.1 µM, first compound 0.0316 µM
[6] = second compound 0.1 µM, first compound 0.1 µM
[7] = second compound 0.316 µM, first compound 0.000316 µM
[8] = second compound 0.316 µM, first compound 0.001 µM
[9] = second compound 0.316 µM, first compound 0.00316 µM
[10] = second compound 0.316 µM, first compound 0.01 µM
[11] = second compound 0.316 µM, first compound 0.0316 µM
[12] = second compound 0.316 µM, first compound 0.1 µM
[13] = second compound 1 µM, first compound 0.000316 µM
[14] = second compound 1 µM, first compound 0.001 µM
[15] = second compound 1 µM, first compound 0.00316 µM
[16] = second compound 1 µM, first compound 0.01 µM
[17] = second compound 1 µM, first compound 0.0316 µM
[18] = second compound 1 µM, first compound 0.1 µM
[19] = second compound 3.16 µM, first compound 0.000316 µM
[20] = second compound 3.16 µM, first compound 0.001 µM
[21] = second compound 3.16 µM, first compound 0.00316 µM
[22] = second compound 3.16 µM, first compound 0.01 µM
[23] = second compound 3.16 µM, first compound 0.0316 µM
[24] = second compound 3.16 µM, first compound 0.1 µM
[25] = second compound 10 µM, first compound 0.000316 µM
[26] = second compound 10 µM, first compound 0.001 µM
[27] = second compound 10 µM, first compound 0.00316 µM
[28] = second compound 10 µM, first compound 0.01 µM
[29] = second compound 10 µM, first compound 0.0316 µM
[30] = second compound 10 µM, first compound 0.1 µM
[31] = second compound 0.1 µM, first compound 0.00949 µM
[32] = second compound 0.1 µM, first compound 0.03 µM
[33] = second compound 0.1 µM, first compound 0.0949 µM
[34] = second compound 0.1 µM, first compound 0.3 µM
[35] = second compound 0.1 µM, first compound 0.949 µM
[36] = second compound 0.1 µM, first compound 3 µM
[37] = second compound 0.316 µM, first compound 0.00949 µM
[38] = second compound 0.316 µM, first compound 0.03 µM
[39] = second compound 0.316 µM, first compound 0.0949 µM
[40] = second compound 0.316 µM, first compound 0.3 µM
[41] = second compound 0.316 µM, first compound 0.949 µM
[42] = second compound 0.316 µM, first compound 3 µM
[43] = second compound 1 µM, first compound 0.00949 µM
[44] = second compound 1 µM, first compound 0.03 µM
[45] = second compound 1 µM, first compound 0.0949 µM
[46] = second compound 1 µM, first compound 0.3 µM
[47] = second compound 1 µM, first compound 0.949 µM
[48] = second compound 1 µM, first compound 3 µM
[49] = second compound 3.16 µM, first compound 0.00949 µM
[50] = second compound 3.16 µM, first compound 0.03 µM
[51] = second compound 3.16 µM, first compound 0.0949 µM
[52] = second compound 3.16 µM, first compound 0.3 µM
[53] = second compound 3.16 µM, first compound 0.949 µM
[54] = second compound 3.16 µM, first compound 3 µM
[55] = second compound 10 µM, first compound 0.00949 µM
[56] = second compound 10 µM, first compound 0.03 µM
[57] = second compound 10 µM, first compound 0.0949 µM
[58] = second compound 10 µM, first compound 0.3 µM
[59] = second compound 10 µM, first compound 0.949 µM
[60] = second compound 10 µM, first compound 3 µM
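Further: spheroids exposed to agents for seven days before readout.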
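Wherever viability, T/C is given: 100% = DMSO vehicle control wells.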

CC(C)CC(NC(=O)C(Cc1ccccc1)NC(=O)c1cnccn1)B(O)O (stereo not given) + NC1CCC(NC2CC2c2ccccc2)CC1
IC50 (second compound 0.1 µM): < 0.316 nM | IC50 (second compound 0.316 µM): < 0.316 nM | IC50 (second compound 1 µM): < 0.316 nM | IC50 (second compound 3.16 µM): < 0.316 nM | IC50 (second compound 10 µM): < 0.316 nM | viability, T/C [1]: 9.12% | viability, T/C [2]: 2.17% | viability, T/C [3]: 1.09% | viability, T/C [4]: 0.81% | viability, T/C [5]: 0.69% | viability, T/C [6]: 0.6% | viability, T/C [7]: 7.64% | viability, T/C [8]: 2.21% | viability, T/C [9]: 1.14% | viability, T/C [10]: 0.67% | viability, T/C [11]: 0.64% | viability, T/C [12]: 0.58% | viability, T/C [13]: 9.06% | viability, T/C [14]: 1.64% | viability, T/C [15]: 0.88% | viability, T/C [16]: 0.64% | viability, T/C [17]: 0.7% | viability, T/C [18]: 0.62% | viability, T/C [19]: 8.64% | viability, T/C [20]: 1.66% | viability, T/C [21]: 0.69% | viability, T/C [22]: 0.63% | viability, T/C [23]: 0.46% | viability, T/C [24]: 0.51% | viability, T/C [25]: 6.88% | viability, T/C [26]: 1.23% | viability, T/C [27]: 0.77% | viability, T/C [28]: 0.45% | viability, T/C [29]: 0.75% | viability, T/C [30]: 0.41%

CC(C)CC(NC(=O)CNC(=O)c1cc(Cl)ccc1Cl)B1OC(=O)CC(CC(=O)O)(C(=O)O)O1 (stereo not given) + NC1CCC(NC2CC2c2ccccc2)CC1
IC50 (second compound 0.1 µM): 0.62 nM | IC50 (second compound 0.316 µM): 0.661 nM | IC50 (second compound 1 µM): 0.681 nM | IC50 (second compound 3.16 µM): 0.596 nM | IC50 (second compound 10 µM): 0.606 nM | viability, T/C [1]: 89.2% | viability, T/C [2]: 22% | viability, T/C [3]: 4.81% | viability, T/C [4]: 1.88% | viability, T/C [5]: 1.17% | viability, T/C [6]: 1.44% | viability, T/C [7]: 97.2% | viability, T/C [8]: 23.5% | viability, T/C [9]: 4.46% | viability, T/C [10]: 1.83% | viability, T/C [11]: 1.73% | viability, T/C [12]: 1.09% | viability, T/C [13]: 96.5% | viability, T/C [14]: 26.8% | viability, T/C [15]: 4.37% | viability, T/C [16]: 1.55% | viability, T/C [17]: 1.3% | viability, T/C [18]: 0.81% | viability, T/C [19]: 82.2% | viability, T/C [20]: 23.4% | viability, T/C [21]: 4.76% | viability, T/C [22]: 1.66% | viability, T/C [23]: 1.29% | viability, T/C [24]: 0.98% | viability, T/C [25]: 90.5% | viability, T/C [26]: 18.7% | viability, T/C [27]: 4.32% | viability, T/C [28]: 1.66% | viability, T/C [29]: 1.03% | viability, T/C [30]: 0.65%

Nc1ccccc1NC(=O)c1ccc(CNC(=O)OCc2cccnc2)cc1 + NC1CCC(NC2CC2c2ccccc2)CC1
IC50 (second compound 0.1 µM): 244 nM | IC50 (second compound 0.316 µM): 279 nM | IC50 (second compound 1 µM): 224 nM | IC50 (second compound 3.16 µM): 314 nM | IC50 (second compound 10 µM): 269 nM | viability, T/C [31]: 106% | viability, T/C [32]: 88.6% | viability, T/C [33]: 76.2% | viability, T/C [34]: 46.2% | viability, T/C [35]: 15.4% | viability, T/C [36]: 5.1% | viability, T/C [37]: 102% | viability, T/C [38]: 97.3% | viability, T/C [39]: 81.8% | viability, T/C [40]: 48.9% | viability, T/C [41]: 15.4% | viability, T/C [42]: 5.32% | viability, T/C [43]: 117% | viability, T/C [44]: 85.9% | viability, T/C [45]: 73.6% | viability, T/C [46]: 46.3% | viability, T/C [47]: 15.9% | viability, T/C [48]: 5.11% | viability, T/C [49]: 104% | viability, T/C [50]: 85.8% | viability, T/C [51]: 83.6% | viability, T/C [52]: 53% | viability, T/C [53]: 15.6% | viability, T/C [54]: 5.33% | viability, T/C [55]: 96.1% | viability, T/C [56]: 91.1% | viability, T/C [57]: 75.5% | viability, T/C [58]: 50.2% | viability, T/C [59]: 12.7% | viability, T/C [60]: 4.33%

O=C(C=Cc1cccc(S(=O)(=O)Nc2ccccc2)c1)NO + NC1CCC(NC2CC2c2ccccc2)CC1
IC50 (second compound 0.1 µM): 88.1 nM | IC50 (second compound 0.316 µM): 94.5 nM | IC50 (second compound 1 µM): 121 nM | IC50 (second compound 3.16 µM): 112 nM | IC50 (second compound 10 µM): 83.7 nM | viability, T/C [31]: 100% | viability, T/C [32]: 80.5% | viability, T/C [33]: 48.6% | viability, T/C [34]: 18.1% | viability, T/C [35]: 4.19% | viability, T/C [36]: 1.29% | viability, T/C [37]: 105% | viability, T/C [38]: 80.4% | viability, T/C [39]: 53.1% | viability, T/C [40]: 18.7% | viability, T/C [41]: 3.88% | viability, T/C [42]: 1.5% | viability, T/C [43]: 97.1% | viability, T/C [44]: 85.2% | viability, T/C [45]: 58.5% | viability, T/C [46]: 20.8% | viability, T/C [47]: 3.93% | viability, T/C [48]: 1.07% | viability, T/C [49]: 102% | viability, T/C [50]: 88.3% | viability, T/C [51]: 56.5% | viability, T/C [52]: 17% | viability, T/C [53]: 3.94% | viability, T/C [54]: 0.93% | viability, T/C [55]: 96.4% | viability, T/C [56]: 87.3% | viability, T/C [57]: 44.3% | viability, T/C [58]: 13.2% | viability, T/C [59]: 3.61% | viability, T/C [60]: 0.5%
